Data: patent US20220132852A1, “PESTICIDALLY ACTIVE HETEROCYCLIC DERIVATIVES WITH SULFUR CONTAINING SUBSTITUENTS” (SYNGENTA CROP PROTECTION AG, priority 2019, published 2022)

Columns and labels:
Assay type in all cases: in vivo
[1] = test system: Spodoptera littoralis (Egyptian Cotton Leaf Worm); assay: Example B6: Activity against Spodoptera littoralis (Egyptian cotton leaf worm); details: foliar, 72 h, application rate 200 ppm, L1 larvae on sprayed cotton leaf discs, 3 days after infestation, read-out: control (mortality, anti-feeding effect or growth inhibition)
Protocol: Example B6: Activity Against Spodoptera littoralis (Egyptian Cotton Leaf Worm)
Cotton leaf discs were placed onto agar in 24-well microtiter plates and sprayed with aqueous test solutions prepared from 10′000 ppm DMSO stock solutions. After drying the leaf discs were infested with five L1 larvae. The samples were assessed for mortality, anti-feeding effect, and growth inhibition in comparison to untreated samples 3 days after infestation. Control of Spodoptera littoralis by a test sample is given when at least one of the categories mortality, anti-feedant effect, and growth inhibition is higher than the untreated sample.

[2] = test system: Euschistus heros (Neotropical Brown Stink Bug); assay: Example B2: Activity against Euschistus heros (neotropical brown stink bug), sprayed soybean leaves; details: 120 h, application rate 200 ppm, N2 nymphs on sprayed soybean leaves, 5 days after infestation, read-out: effect in at least one of the two categories (mortality or growth inhibition)
Protocol: Example B2: Activity Against Euschistus heros (Neotropical Brown Stink Bug)
Soybean leaves on agar in 24-well microtiter plates were sprayed with aqueous test solutions prepared from 10′000 ppm DMSO stock solutions. After drying the leaves were infested with N2 nymphs. The samples were assessed for mortality and growth inhibition in comparison to untreated samples 5 days after infestation.

[3] = test system: Diabrotica balteata (Corn Root Worm); assay: Example B1: Activity against Diabrotica balteata (corn root worm), sprayed maize sprouts; details: 96 h, application rate 200 ppm, L2 larvae on sprayed maize sprouts, 4 days after infestation, read-out: effect in at least one of the two categories (mortality or growth inhibition)
Protocol: Example B1: Activity Against Diabrotica balteata (Corn Root Worm)
Maize sprouts placed onto an agar layer in 24-well microtiter plates were treated with aqueous test solutions prepared from 10′000 ppm DMSO stock solutions by spraying. After drying, the plates were infested with L2 larvae (6 to 10 per well). The samples were assessed for mortality and growth inhibition in comparison to untreated samples 4 days after infestation.

[4] = test system: Plutella xylostella (Diamond Back Moth); assay: Example B3: Activity against Plutella xylostella (diamond back moth), artificial diet; details: 192 h, application rate 200 ppm, eggs on artificial diet, 8 days after infestation, read-out: effect in at least one of the two categories (mortality or growth inhibition)
Protocol: Example B3: Activity Against Plutella xylostella (Diamond Back Moth)
24-well microtiter plates with artificial diet were treated with aqueous test solutions prepared from 10′000 ppm DMSO stock solutions by pipetting. After drying, Plutella eggs were pipetted through a plastic stencil onto a gel blotting paper and the plate was closed with it. The samples were assessed for mortality and growth inhibition in comparison to untreated samples 8 days after infestation. The following compounds gave an effect of at least 80% in at least one of the two categories (mortality or growth inhibition) at an application rate of 200 ppm: P2, P4, P5, P6, P8, P9, P10, P11, P12, P14, P15, P16, P17, P18, P19, P20, P21, P22, P23, P24, P25, P26, P27, P28, P29, P30, P31, P32, P33, P34, P35, P36, P38, P39, P40, P42, P45, P46, P47, P49, P50, P51, P52.

CCSc1cc(C(F)(F)F)cnc1-c1cc2cnn(CC(F)(F)C(F)(F)F)c2cn1 [Compound P30, 5-[3-ethylsulfanyl-5-(trifluoromethyl)-2-pyridyl]-1-(2,2,3,3,3-pentafluoropropyl) pyrazolo[3,4-c] pyridine]
≥ 80%: percent control (mortality, anti-feedant effect or growth inhibition) at 200 ppm [1] | percent effect (mortality or growth inhibition) at 200 ppm [2] | percent effect (mortality or growth inhibition) at 200 ppm [3] | percent effect (mortality or growth inhibition) at 200 ppm [4]

CCS(=O)(=O)c1ccc(Cl)nc1-c1cc2ccn(CC(F)(F)C(F)(F)F)c2cn1 [Compound P36, 5-(6-chloro-3-ethylsulfonyl-2-pyridyl)-1-(2,2,3,3,3-pentafluoropropyl) pyrrolo[2,3-c]pyridine]
≥ 80%: percent control (mortality, anti-feedant effect or growth inhibition) at 200 ppm [1] | percent effect (mortality or growth inhibition) at 200 ppm [3] | percent effect (mortality or growth inhibition) at 200 ppm [4]

CCS(=O)(=O)c1cc(C2CC2)cnc1-c1cc2cnn(CC(F)(F)C(F)(F)F)c2cn1 [Compound P28, 5-(5-cyclopropyl-3-ethylsulfonyl-2-pyridyl)-1-(2,2,3,3,3-pentafluoropropyl) pyrazolo[3,4-c] pyridine]
≥ 80%: percent control (mortality, anti-feedant effect or growth inhibition) at 200 ppm [1] | percent effect (mortality or growth inhibition) at 200 ppm [2] | percent effect (mortality or growth inhibition) at 200 ppm [3] | percent effect (mortality or growth inhibition) at 200 ppm [4]

CCSc1cc(C2CC2)cnc1-c1cc2ncn(CC(F)(F)C(F)(F)F)c2cn1 [Compound P9, 6-(5-cyclopropyl-3-ethylsulfanyl-2-pyridyl)-3-(2,2,3,3,3-pentafluoropropyl) imidazo[4,5-c]pyridine]
≥ 80%: percent effect (mortality or growth inhibition) at 200 ppm [3] | percent effect (mortality or growth inhibition) at 200 ppm [4]

CCSc1cc(C(C)(C)C#N)cnc1-c1cc2ccn(CC(F)(F)C(F)(F)F)c2cn1 [Compound P29, 2-[5-ethylsulfanyl-6-[1-(2,2,3,3,3-pentafluoropropyl)pyrrolo[2,3-c]pyridin-5-yl]-3-pyridyl]-2-methyl-propanenitrile]
≥ 80%: percent effect (mortality or growth inhibition) at 200 ppm [3] | percent effect (mortality or growth inhibition) at 200 ppm [4]

CCS(=O)(=O)c1cc(C(C)(C)C#N)cnc1-c1cc2ccn(CC(F)(F)C(F)(F)F)c2cn1 [Compound P19, 2-[5-ethylsulfonyl-6-[1-(2,2,3,3,3-pentafluoropropyl)pyrrolo[2,3-c]pyridin-5-yl]-3-pyridyl]-2-methyl-propanenitrile]
≥ 80%: percent control (mortality, anti-feedant effect or growth inhibition) at 200 ppm [1] | percent effect (mortality or growth inhibition) at 200 ppm [2] | percent effect (mortality or growth inhibition) at 200 ppm [3] | percent effect (mortality or growth inhibition) at 200 ppm [4]

CCS(=O)(=O)c1cc(-n2ccc(C(F)(F)F)n2)cnc1-c1cc2cnn(CC(F)(F)C(F)(F)F)c2cn1 [Compound P45, 5-[3-ethylsulfonyl-5-[3-(trifluoromethyl)pyrazol-1-yl]-2-pyridyl]-1-(2,2,3,3,3-pentafluoropropyl) pyrazolo[3,4-c]pyridine]
≥ 80%: percent control (mortality, anti-feedant effect or growth inhibition) at 200 ppm [1] | percent effect (mortality or growth inhibition) at 200 ppm [2] | percent effect (mortality or growth inhibition) at 200 ppm [3] | percent effect (mortality or growth inhibition) at 200 ppm [4]

CCS(=O)(=O)c1cc(NC)cnc1-c1cc2ccn(CC(F)(F)C(F)(F)F)c2cn1 [Compound P18, 5-ethylsulfonyl-N-methyl-6-[1-(2,2,3,3,3-pentafluoropropyl)pyrrolo[2,3-c]pyridin-5-yl]pyridin-3-amine]
≥ 80%: percent control (mortality, anti-feedant effect or growth inhibition) at 200 ppm [1] | percent effect (mortality or growth inhibition) at 200 ppm [2] | percent effect (mortality or growth inhibition) at 200 ppm [3] | percent effect (mortality or growth inhibition) at 200 ppm [4]

CCSc1cc(Oc2ccccn2)cnc1-c1cc2cnn(CC(F)(F)C(F)(F)F)c2cn1 [Compound P20, 5-[3-ethylsulfanyl-5-(2-pyridyloxy)-2-pyridyl]-1-(2,2,3,3,3-pentafluoropropyl) pyrazolo [3,4-c]pyridine]
≥ 80%: percent control (mortality, anti-feedant effect or growth inhibition) at 200 ppm [1] | percent effect (mortality or growth inhibition) at 200 ppm [2] | percent effect (mortality or growth inhibition) at 200 ppm [3] | percent effect (mortality or growth inhibition) at 200 ppm [4]

CCSc1cc(C2(C#N)CC2)c[n+]([O-])c1-c1cc2ncn(CC(F)(F)C(F)(F)F)c2cn1 [PN8, 1-[5-ethylsulfanyl-1-oxido-6-[3-(2,2,3,3,3-pentafluoropropyl)imidazo[4,5-c]pyridin-6-yl]pyridin-1-ium-3-yl]cyclopropane-carbonitrile]
≥ 80%: percent effect (mortality or growth inhibition) at 200 ppm [2]

CCSc1cc(-n2ccc(Cl)n2)cnc1-c1cc2cnn(CC(F)(F)C(F)(F)F)c2cn1 [Compound P39, 5-[5-(3-chloropyrazol-1-yl)-3-ethylsulfanyl-2-pyridyl]-1-(2,2,3,3,3-pentafluoropropyl) pyrazolo[3,4-c]pyridine]
≥ 80%: percent control (mortality, anti-feedant effect or growth inhibition) at 200 ppm [1] | percent effect (mortality or growth inhibition) at 200 ppm [3] | percent effect (mortality or growth inhibition) at 200 ppm [4]

CCSc1cc(C2(C#N)CC2)cnc1-c1cc2ncn(CC(F)(F)C(F)(F)F)c2cn1 [Compound P38, 1-[5-ethylsulfanyl-6-[3-(2,2,3,3,3-pentafluoropropyl)imidazo[4,5-c]pyridin-6-yl]-3-pyridyl] cyclopropane-carbonitrile]
≥ 80%: percent control (mortality, anti-feedant effect or growth inhibition) at 200 ppm [1] | percent effect (mortality or growth inhibition) at 200 ppm [2] | percent effect (mortality or growth inhibition) at 200 ppm [3] | percent effect (mortality or growth inhibition) at 200 ppm [4]

CCS(=O)(=O)c1cc(C2CC2)cnc1-c1cc2ccn(CC(F)(F)C(F)(F)F)c2cn1 [Compound P51, 5-(5-cyclopropyl-3-ethylsulfonyl-2-pyridyl)-1-(2,2,3,3,3-pentafluoropropyl) pyrrolo[2,3-c]pyridine]
≥ 80%: percent control (mortality, anti-feedant effect or growth inhibition) at 200 ppm [1] | percent effect (mortality or growth inhibition) at 200 ppm [3] | percent effect (mortality or growth inhibition) at 200 ppm [4]

CCSc1cc(-n2ccc(C(F)(F)F)n2)cnc1-c1cc2cnn(CC(F)(F)C(F)(F)F)c2cn1 [Compound P50, 5-[3-ethylsulfanyl-5-[3-(trifluoromethyl)pyrazol-1-yl]-2-pyridyl]-1-(2,2,3,3,3-pentafluoropropyl) pyrazolo[3,4-c]pyridine]
≥ 80%: percent control (mortality, anti-feedant effect or growth inhibition) at 200 ppm [1] | percent effect (mortality or growth inhibition) at 200 ppm [3] | percent effect (mortality or growth inhibition) at 200 ppm [4]

CCS(=O)(=O)c1ccc(Cl)nc1-c1cc2cnn(CC(F)(F)C(F)(F)F)c2cn1 [Compound P49, 5-(6-chloro-3-ethylsulfonyl-2-pyridyl)-1-(2,2,3,3,3-pentafluoropropyl) pyrazolo[3,4-c]pyridine]
≥ 80%: percent control (mortality, anti-feedant effect or growth inhibition) at 200 ppm [1] | percent effect (mortality or growth inhibition) at 200 ppm [2] | percent effect (mortality or growth inhibition) at 200 ppm [3] | percent effect (mortality or growth inhibition) at 200 ppm [4]

CCSc1cc(C2(C#N)CC2)cnc1-c1cc2ccn(CC(F)(F)C(F)(F)F)c2cn1 [Compound P37, 1-[5-ethylsulfanyl-6-[1-(2,2,3,3,3-pentafluoropropyl)pyrrolo[2,3-c]pyridin-5-yl]-3-pyridyl] cyclopropane-carbonitrile]
≥ 80%: percent control (mortality, anti-feedant effect or growth inhibition) at 200 ppm [1] | percent effect (mortality or growth inhibition) at 200 ppm [3]

CCSc1cc(C2CC2)c[n+]([O-])c1-c1cc2ncn(CC(F)(F)C(F)(F)F)c2cn1 [PN4, 6-(5-cyclopropyl-3-ethylsulfanyl-1-oxido-pyridin-1-ium-2-yl)-3-(2,2,3,3,3-pentafluoropropyl)imidazo[4,5-c]pyridine]
≥ 80%: percent effect (mortality or growth inhibition) at 200 ppm [2]

CCS(=O)(=O)c1ccc(-n2cncn2)nc1-c1cc2ccn(CC(F)(F)C(F)(F)F)c2cn1 [Compound P35, 5-[3-ethylsulfonyl-6-(1,2,4-triazol-1-yl)-2-pyridyl]-1-(2,2,3,3,3-pentafluoropropyl) pyrrolo[2,3-c]pyridine]
≥ 80%: percent control (mortality, anti-feedant effect or growth inhibition) at 200 ppm [1] | percent effect (mortality or growth inhibition) at 200 ppm [3] | percent effect (mortality or growth inhibition) at 200 ppm [4]
